Experiment [1] has as its target Protein farnesyltransferase (Rattus norvegicus, UniProt Q02293+Q04631). Kind of experiment: In vitro inhibition of rat farnesyltransferase. Format: protein-complex assay.
Another experiment is filed under the species Mus musculus. Kind of experiment: Minimum effective dose required to detect unfarnesylated Ras in H-Ras-transformed NIH3T3 (H-Ras-F) cells injected into mice. Format: functional.

We go through 17 compounds from ChEMBL document CHEMBL1130182, “C-terminal modifications of histidyl-N-benzylglycinamides to give improved inhibition of Ras farnesyltransferase, cellular activity, and anticancer activity in mice” (J Med Chem, 1997).

Usually IC50 stands for the concentration that gives 50% inhibition. Lower therefore signals greater potency.

Square brackets hold non-standard residues; d marks the D form. Peptide text beside a SMILES is read from it. * marks the point of attachment. Cbz = O=C(OCc1ccccc1)*; Bn = c1ccc(C*)cc1

Regarding `C[C@H](CNC(=O)CN(Cc1ccc(OCc2ccccc2)cc1)C(=O)[C@H](Cc1c[nH]cn1)NC(=O)OCc1ccccc1)c1ccccc1`, the IC50 in experiment [1] stood at 5 nM. In the experiment listed under Mus musculus, this compound had an MED of 0.05 µM. In the experiment filed under Mus musculus, `CCC(CC)(CNC(=O)CN(Cc1ccc(OCc2ccccc2)cc1)C(=O)[C@H](Cc1c[nH]cn1)NC(=O)OCc1ccccc1)c1ccccc1` displayed an MED of 0.2 µM. The compound `O=C(CN(Cc1ccc(OCc2ccccc2)cc1)C(=O)[C@H](Cc1c[nH]cn1)NC(=O)OCc1ccccc1)NCCOCc1ccccc1` returned an IC50 in experiment [1] of 320 nM. Moreover, in the experiment filed under Mus musculus, the MED was 1 µM. `CCC(CNC(=O)CN(Cc1ccc(OCc2ccccc2)cc1)C(=O)[C@H](Cc1c[nH]cn1)NC(=O)OCc1ccccc1)c1ccccc1` (some centres not stated) had an IC50 in experiment [1] of 5 nM. The MED in the experiment listed under Mus musculus stood at 0.05 µM. As for `C[C@@H](Cc1ccccc1)NC(=O)CN(Cc1ccc(OCc2ccccc2)cc1)C(=O)[C@H](Cc1c[nH]cn1)NC(=O)OCc1ccccc1`, it took 41 nM to reach half-maximal inhibition in experiment [1] (IC50). The compound further yielded an MED in the experiment listed under Mus musculus of 0.2 µM.

As for `O=C(CN(Cc1ccc(OCc2ccccc2)cc1)C(=O)[C@H](Cc1c[nH]cn1)NC(=O)OCc1ccccc1)NCC1(c2ccccc2)CCCC1`, the midpoint of inhibition in experiment [1], the IC50, lay at 17 nM. The same compound gave an MED in the experiment listed under Mus musculus of 0.2 µM. Take `C[C@@H](CNC(=O)CN(Cc1ccc(OCc2ccccc2)cc1)C(=O)[C@H](Cc1c[nH]cn1)NC(=O)OCc1ccccc1)c1ccccc1`: the IC50 in experiment [1] worked out at 16 nM. The MED in the experiment filed under Mus musculus turned out to be 0.2 µM. Taken in the same sequence, the figures for `CCCC(CNC(=O)CN(Cc1ccc(OCc2ccccc2)cc1)C(=O)[C@H](Cc1c[nH]cn1)NC(=O)OCc1ccccc1)c1ccccc1` (some centres not stated) were 25 nM and 0.2 µM. For `C[C@H](Cc1ccccc1)NC(=O)CN(Cc1ccc(OCc2ccccc2)cc1)C(=O)[C@H](Cc1c[nH]cn1)NC(=O)OCc1ccccc1`, in that order: 3 nM and 0.05 µM. `CC(C)(Cc1ccccc1)NC(=O)CN(Cc1ccc(OCc2ccccc2)cc1)C(=O)[C@H](Cc1c[nH]cn1)NC(=O)OCc1ccccc1`: in experiment [1], the IC50 amounted to 270 nM. Also, the MED in the experiment listed under Mus musculus is 1 µM.

`CC(C)(CNC(=O)CN(Cc1ccc(OCc2ccccc2)cc1)C(=O)[C@H](Cc1c[nH]cn1)NC(=O)OCc1ccccc1)c1ccccc1` had an IC50 in experiment [1] of 4 nM. The compound also gave an MED in the experiment listed under Mus musculus of 0.05 µM.

The compound `O=C(CN(Cc1ccc(OCc2ccccc2)cc1)C(=O)[C@H](Cc1c[nH]cn1)NC(=O)OCc1ccccc1)NCCc1ccccc1` registered an IC50 in experiment [1] of 62 nM. In the experiment listed under Mus musculus, this compound registered an MED of 0.1 µM. `C[C@@H](NC(=O)[C@H](Cc1c[nH]c2ccccc12)NC(=O)[C@H](COCc1ccccc1)NC(=O)[C@H](Cc1ccc(OCc2ccccc2)cc1)NC(=O)[C@H](Cc1c[nH]cn1)NC(=O)OCc1ccccc1)C(N)=O` (Cbz-HY(Bn)S(Bn)W[dA]-NH2): the MED in the experiment filed under Mus musculus is over 100 µM. On to `N#CC(CNC(=O)CN(Cc1ccc(OCc2ccccc2)cc1)C(=O)[C@H](Cc1c[nH]cn1)NC(=O)OCc1ccccc1)c1ccccc1` (some centres not stated), for which half-maximal inhibition in experiment [1] (IC50) required 2 nM. This compound also returned an MED in the experiment listed under Mus musculus of 0.05 µM.

As for `O=C(CN(Cc1ccc(OCc2ccccc2)cc1)C(=O)[C@H](Cc1c[nH]cn1)NC(=O)OCc1ccccc1)NCC1(c2ccccc2)CC1`, the IC50 in experiment [1] was 7 nM. The compound further had an MED in the experiment filed under Mus musculus of 0.02 µM. For the compound `CC(CNC(=O)CN(Cc1ccc(OCc2ccccc2)cc1)C(=O)[C@H](Cc1c[nH]cn1)NC(=O)OCc1ccccc1)c1ccccc1` (some centres not stated), the IC50 in experiment [1] worked out at 8 nM. This compound also returned an MED in the experiment filed under Mus musculus of 0.05 µM. In turn, `O=C(CN(Cc1ccc(OCc2ccccc2)cc1)C(=O)[C@H](Cc1c[nH]cn1)NC(=O)OCc1ccccc1)NCC1(c2ccccc2)CCC1` had an IC50 in experiment [1] of 6 nM. Besides, the MED in the experiment listed under Mus musculus was determined as 0.02 µM.
